Measured values: patent publication US20220282325A1, “METHYLATION ASSAYS AND USES THEREOF” (The General Hospital Corporation, priority 2019, published 2022)

Experiments:
[1] = system: HL-60 cells; test: XRBS DNA methylation profiling of decitabine-treated cells; format: cell-based, human; conditions: HL-60, 300 nM decitabine, five days
Procedure: (§1) In order to detect differential methylation across an isogenic system, cell lines were treated with 300 nM decitabine, which inhibits DNA methyltransferase enzymes through covalent entrapment on DNA (FIGS. 22A and 22B). HL-60 and OCI-AML3 were treated, as these had intermediate global methylation levels among the four cell lines examined, and profiled DNA methylation using expanded representation bisulfite sequencing (XRBS) (FIG. 22C).
(§2) For expanded representation bisulfite sequencing (XRBS) profiles, HL-60 and OCI-AML3 cells were treated with 300 nM decitabine in 6 well plates. Cells were harvested after 5 days and gDNA was extracted using Qiagen DNA Mini Blood Kit (51104). 10 ng of gDNA were used for each library preparation.
(§3) Before alignment, primer dimers were filtered using Cutadapt version 2.7 and the following parameters:--discard -a GCTCTTCCGATCT. Short read pairs were trimmed using TrimGalore version 0.6.5 and the following parameters: --paired --illumina --nextseq 20. Trimmed sequencing reads were then aligned to an in-silico bisulfate-converted reference genome (hg38 and mm10) using methylCtools version 1.0.0 and bwa mem version 0.7.17. […] Putative PCR duplicates were removed by considering the outer mapping position of both paired-end reads, as well as the random hexamer sequence that was trimmed prior to alignment and functioned as a unique molecular identifier (UMI). For library complexity analysis, alignments were downsampled prior to this step. DNA methylation calling was performed using methylCtools bcall and the --trimPE parameter. DNA methylation values, which are incorporated herein by reference for all purposes, were deposited on GEO (GSE149954, token: azujmeaezxqdxgr).
(§4) All downstream analyses were performed in R (version 3.6.2), making extensive use of the data.table and GenomicRanges packages. For many analyses, average DNA methylation values within genomic regions were used. Regions included CpG islands, promoters (1 kb up- and downstream of all transcription start sites of protein-coding genes), enhancers and CTCF binding sites (Encyclopedia of DNA Elements (ENCODE) narrowPeak files), and genomic 100 kb-windows. Average methylation values within these regions were calculated by summarizing calls for methylated and unmethylated CpGs across the entire region, and then calculating a single beta-value. For 100 kb-windows, CpGs within islands were not included. Minimum coverage thresholds were applied as indicated. Similarly, average methylation values were calculated for each genomic bin when visualized as heatmaps (genomic regions were separated in 100 equally-sized bins). Differential DNA methylation analysis was performed by sorting regions according to their difference in average methylation values (for enhancers and CTCF binding sites) or by applying a threshold (0.5) on the difference between the average methylation values of one cell line to the average of the other three cell lines (for promoters).

[2] = system: OCI-AML3 cells; test: as above; format: cell-based, human; conditions: OCI-AML3, 300 nM decitabine, five days, vs DMSO
Procedure: as §1, §2, §3, §4

SMILES: Nc1ncn([C@H]2C[C@H](O)[C@@H](CO)O2)c(=O)n1 [decitabine]
- decrease of DNA methylation levels in CpG islands ([1]; vs DMSO): 9.5%
- decrease of DNA methylation levels in non-island CpGs ([1]; vs DMSO): 20.2%
- reduction of average global methylation levels ([1]; vs DMSO): 19.1%
- average methylation of non-island CpGs after decitabine treatment ([1]; DMSO control 68.1%): 54.3%
- decrease of DNA methylation levels in CpG islands [2]: 11.2%
- decrease of DNA methylation levels in non-island CpGs [2]: 14.0%
- reduction of average global methylation levels [2]: 13.7%
